Results as given in PubChem BioAssay AID1918931 (Molecular Pharmacology Branch, DTP, NCI, 2023).

System: 138582-337-R-J1-PDC complex spheroid viability
Assay: Anticancer human tumor 138582-337-R-J1-PDC patient-derived Merkel cell tumor cell line growth inhibition
Conditions: for IC50: curve of first compound; for viability, T/C: stronger effect = lower value
From the text: Multicellular complex tumor spheroid response to LSD1 Inhibitor Iadademstat in combination with a variety of drugs and investigational agents in selected tumor cell lines
The current study was undertaken to assess response to LSD1 inhibitors in combination with standard-of-care drugs and investigational agents in solid tumor complex spheroid models as well as in the K-562 leukemia. Complex spheroids include a stromal component modeled by human endothelial cells (HUVEC) and fibroblasts modeled by human mesenchymal stem cells (MSCs). The concentration ranges selected for each drug and investigational agent were based upon clinically achievable concentrations if the clinical Cmax of the agent was known.
Compounds. The drugs and investigational agents used in this study are listed on Table 1. All of the agents used, including staurosporine (NSC755774) and gemcitabine (NSC613327), were obtained from the Developmental Therapeutics Program, NCI. FDA-approved anticancer drugs are available from the NCI at http://dtp.nci.nih.gov/branches/dscb/oncology_drugset_explanation.html. Drugs and investigational agents were >95% pure by proton nuclear magnetic resonance (NMR) and liquid chromatography/mass spectrometry (LC/MS). Stock solutions were prepared at 400x in DMSO, stored at -70 degrees C, and diluted in fresh medium prior to their use. The final concentration of DMSO in cell culture wells never exceeded 0.25% (v/v). The FDA-approved anticancer drug set is available from the Developmental Therapeutics Program at https://dtp.cancer.gov/organization/dscb/obtaining/available_plates.htm. All drugs and investigational agents were tested over a range starting from a high concentration at or near the clinical Cmax and decreasing in half-log increments. If the clinical Cmax for an agent had not been determined, the highest concentration tested was 10 microM.
Cell Lines. The patient-derived cancer cell (PDC) lines: 292921-168-R-J2-PDC, K24384-001-R-PDC, and 521955-158-R2-J5-PDC pancreatic carcinomas, 556581-035-R-J1 ovarian carcinoma, 324938-238-R-J1-PDC, 855422-203-R-J1-PDC and 883617-216-R-J1-PDC urothelial bladder carcinomas, 743489-274-T-PDC renal cell carcinoma, 138582-R-J1 Merkel cell tumor, K60290-347-R-J1 and K57222-313-R-J1-PDC glioblastomas, 653999-131-R-J2-PDC, LG0703-F948-PDC, and 349418-098-R-PDC non-small cell lung carcinomas, 885512-296-R-J2-PDC, 171881-019-R-J1-PDC breast carcinomas and 186277-243-T-J2-PDC and 233499-124-R-J2-PDC colon carcinomas were obtained from the NCI Patient-Derived Models Repository (PDMR, https://pdmr.cancer.gov). The established cell lines NCI/ADR-RES (RRID:CVCL_14520 and OVCAR-5 (RRID:CVCL_1628) ovarian carcinomas, 786-O (RRID:CVCL_1051) and A498 (RRID:CVCL_A498) renal cell carcinoma, NCI-H211 (ATCC, cat. CRL-5824; RRID:CVCL_1529), NCI-H196 (ATCC, cat. CRL-5823, RRID:CVCL_1509), SW 1271 (ATCC, cat. CRL-2177, RRID:CVCL_1716) and NCI-H1876 (ATCC, cat. CRL-5902, RRID:CVCL_1503) small cell lung carcinomas, MDA-MB-231 (RRID:CVCL_0062) and MDA-MB-468 (RRID:CVCL_0419)breast carcinomas (10-12). Pooled donor human umbilical vein endothelial cells (HUVEC, Lonza, cat. CC-2519) and human mesenchymal stem cells (hMSC, Lonza, cat. PT-2501) were purchased from Lonza (Walkersville, MD).
Cell Culture. All cells were maintained in an incubator at 37 degrees C and 5% CO2 with 95% humidity. The PDC lines were cultured according to standard operating procedures established by the NCI PDMR (https://pdmr.cancer.gov). Briefly all PDCs were thawed and cultured in Matrigel-coated flasks prepared with a working solution of 1X Ham's F-12 nutrient mix, without supplementation (Invitrogen, Waltham, MA, cat. 11765054), 100 U/mL penicillin-streptomycin (Invitrogen, cat. 15140122), and 2.5% Matrigel (Corning Inc., Corning, NY, cat. 354248) for the first three passages. […]

[1] = second compound 0.1 µM, first compound 0.00316 µM
[2] = second compound 0.1 µM, first compound 0.01 µM
[3] = second compound 0.1 µM, first compound 0.0316 µM
[4] = second compound 0.1 µM, first compound 0.1 µM
[5] = second compound 0.316 µM, first compound 0.00316 µM
[6] = second compound 0.316 µM, first compound 0.01 µM
[7] = second compound 0.316 µM, first compound 0.0316 µM
[8] = second compound 0.316 µM, first compound 0.1 µM
[9] = second compound 1 µM, first compound 0.00316 µM
[10] = second compound 1 µM, first compound 0.01 µM
[11] = second compound 1 µM, first compound 0.0316 µM
[12] = second compound 1 µM, first compound 0.1 µM
[13] = second compound 3.16 µM, first compound 0.00316 µM
[14] = second compound 3.16 µM, first compound 0.01 µM
[15] = second compound 3.16 µM, first compound 0.0316 µM
[16] = second compound 3.16 µM, first compound 0.1 µM
[17] = second compound 10 µM, first compound 0.00316 µM
[18] = second compound 10 µM, first compound 0.01 µM
[19] = second compound 10 µM, first compound 0.0316 µM
[20] = second compound 10 µM, first compound 0.1 µM
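Also: spheroids exposed to agents for 7 days.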
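For viability, T/C in this document: 100% = DMSO vehicle control viability.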

## CC[C@@]1(O)C(=O)OCc2c1cc1n(c2=O)Cc2cc3c(CN(C)C)c(O)ccc3nc2-1 + NC1CC1c1ccc(-c2cccc(O)c2)cc1
Second compound 0.1 µM
  IC50: > 100 nM
Second compound 0.316 µM
  IC50: > 100 nM
Second compound 1 µM
  IC50: > 100 nM
Second compound 3.16 µM
  IC50: > 100 nM
Second compound 10 µM
  IC50: > 100 nM
Second compound 0.1 µM, first compound 0.000316 µM
  viability, T/C: 70.6%
Second compound 0.1 µM, first compound 0.001 µM
  viability, T/C: 71.1%
[1]
  viability, T/C: 63.5%
[2]
  viability, T/C: 80%
[3]
  viability, T/C: 68.5%
[4]
  viability, T/C: 76.8%
Second compound 0.316 µM, first compound 0.000316 µM
  viability, T/C: 80.2%
Second compound 0.316 µM, first compound 0.001 µM
  viability, T/C: 70.7%
[5]
  viability, T/C: 73.2%
[6]
  viability, T/C: 68.5%
[7]
  viability, T/C: 66.6%
[8]
  viability, T/C: 75.9%
Second compound 1 µM, first compound 0.000316 µM
  viability, T/C: 70.8%
Second compound 1 µM, first compound 0.001 µM
  viability, T/C: 70.7%
[9]
  viability, T/C: 80.2%
[10]
  viability, T/C: 71.1%
[11]
  viability, T/C: 61.3%
[12]
  viability, T/C: 74.3%
Second compound 3.16 µM, first compound 0.000316 µM
  viability, T/C: 75.6%
Second compound 3.16 µM, first compound 0.001 µM
  viability, T/C: 74.8%
[13]
  viability, T/C: 85.6%
[14]
  viability, T/C: 81.8%
[15]
  viability, T/C: 66.4%
[16]
  viability, T/C: 66.4%
Second compound 10 µM, first compound 0.000316 µM
  viability, T/C: 82.8%
Second compound 10 µM, first compound 0.001 µM
  viability, T/C: 81.2%
[17]
  viability, T/C: 100%
[18]
  viability, T/C: 90.3%
[19]
  viability, T/C: 77.3%
[20]
  viability, T/C: 67.8%

## COc1cc(C2c3cc4c(cc3C(OC3OC5COC(C)OC5C(O)C3O)C3COC(=O)C23)OCO4)cc(OC)c1O (stereo not given) + NC1CC1c1ccc(-c2cccc(O)c2)cc1
Second compound 0.1 µM
  IC50: 762 nM
Second compound 0.316 µM
  IC50: 690 nM
Second compound 1 µM
  IC50: 559 nM
Second compound 3.16 µM
  IC50: 767 nM
Second compound 10 µM
  IC50: 265 nM
Second compound 0.1 µM, first compound 0.00949 µM
  viability, T/C: 60.8%
Second compound 0.1 µM, first compound 0.03 µM
  viability, T/C: 72.3%
Second compound 0.1 µM, first compound 0.0949 µM
  viability, T/C: 63%
Second compound 0.1 µM, first compound 0.3 µM
  viability, T/C: 48.5%
Second compound 0.1 µM, first compound 0.949 µM
  viability, T/C: 52.9%
Second compound 0.1 µM, first compound 3 µM
  viability, T/C: 36.7%
Second compound 0.316 µM, first compound 0.00949 µM
  viability, T/C: 67.1%
Second compound 0.316 µM, first compound 0.03 µM
  viability, T/C: 69.8%
Second compound 0.316 µM, first compound 0.0949 µM
  viability, T/C: 63.1%
Second compound 0.316 µM, first compound 0.3 µM
  viability, T/C: 51.1%
Second compound 0.316 µM, first compound 0.949 µM
  viability, T/C: 52.3%
Second compound 0.316 µM, first compound 3 µM
  viability, T/C: 29.9%
Second compound 1 µM, first compound 0.00949 µM
  viability, T/C: 76.8%
Second compound 1 µM, first compound 0.03 µM
  viability, T/C: 75.9%
Second compound 1 µM, first compound 0.0949 µM
  viability, T/C: 60.6%
Second compound 1 µM, first compound 0.3 µM
  viability, T/C: 53.2%
Second compound 1 µM, first compound 0.949 µM
  viability, T/C: 45%
Second compound 1 µM, first compound 3 µM
  viability, T/C: 40.7%
Second compound 3.16 µM, first compound 0.00949 µM
  viability, T/C: 69.7%
Second compound 3.16 µM, first compound 0.03 µM
  viability, T/C: 75.9%
Second compound 3.16 µM, first compound 0.0949 µM
  viability, T/C: 65.9%
Second compound 3.16 µM, first compound 0.3 µM
  viability, T/C: 51.8%
Second compound 3.16 µM, first compound 0.949 µM
  viability, T/C: 53.1%
Second compound 3.16 µM, first compound 3 µM
  viability, T/C: 31.6%
Second compound 10 µM, first compound 0.00949 µM
  viability, T/C: 71.2%
Second compound 10 µM, first compound 0.03 µM
  viability, T/C: 77.3%
Second compound 10 µM, first compound 0.0949 µM
  viability, T/C: 58.4%
Second compound 10 µM, first compound 0.3 µM
  viability, T/C: 50.1%
Second compound 10 µM, first compound 0.949 µM
  viability, T/C: 41.4%
Second compound 10 µM, first compound 3 µM
  viability, T/C: 37%

## Nc1ncn(C2CC(O)C(CO)O2)c(=O)n1 (stereo not given) + NC1CC1c1ccc(-c2cccc(O)c2)cc1
Second compound 0.1 µM
  IC50: > 1000 nM
Second compound 0.316 µM
  IC50: > 1000 nM
Second compound 1 µM
  IC50: > 1000 nM
Second compound 3.16 µM
  IC50: > 1000 nM
Second compound 10 µM
  IC50: > 1000 nM
[1]
  viability, T/C: 74%
[2]
  viability, T/C: 92%
[3]
  viability, T/C: 94.5%
[4]
  viability, T/C: 85.7%
Second compound 0.1 µM, first compound 0.316 µM
  viability, T/C: 77.8%
Second compound 0.1 µM, first compound 1 µM
  viability, T/C: 75.3%
[5]
  viability, T/C: 82.3%
[6]
  viability, T/C: 98.7%
[7]
  viability, T/C: 108%
[8]
  viability, T/C: 85.7%
Second compound 0.316 µM, first compound 0.316 µM
  viability, T/C: 85.3%
Second compound 0.316 µM, first compound 1 µM
  viability, T/C: 76.6%
[9]
  viability, T/C: 75.8%
[10]
  viability, T/C: 109%
[11]
  viability, T/C: 98.1%
[12]
  viability, T/C: 88.5%
Second compound 1 µM, first compound 0.316 µM
  viability, T/C: 83%
Second compound 1 µM, first compound 1 µM
  viability, T/C: 84.9%
[13]
  viability, T/C: 67.7%
[14]
  viability, T/C: 119%
[15]
  viability, T/C: 113%
[16]
  viability, T/C: 89.6%
Second compound 3.16 µM, first compound 0.316 µM
  viability, T/C: 87.8%
Second compound 3.16 µM, first compound 1 µM
  viability, T/C: 80.1%
[17]
  viability, T/C: 85.8%
[18]
  viability, T/C: 99.2%
[19]
  viability, T/C: 118%
[20]
  viability, T/C: 106%
Second compound 10 µM, first compound 0.316 µM
  viability, T/C: 113%
Second compound 10 µM, first compound 1 µM
  viability, T/C: 88.4%
